Entries after “also recorded” stand apart in the source; their conditions may differ.
T1: rM3Ds (Rattus norvegicus, UniProt P08483, A177S/A238G/A489L/DEL261-437/DEL441-478/E258S/I253V/I483M/INS256[…]/K178L/K182A/K255R/K484R/K486H/L173F/L482A/M480V/R171S/R176Q/R179M/S481M/T174R/T181R/T257A/Y148C)
T1 sequence (P08483 with tags, fused parts or gaps Y148C/R171S/L173F/T174R/R176Q/A177S/K178L/R179M/T181R/K182A/A238G/I253V/K255R/INS256[…]/T257A/E258S/DEL261-437/DEL441-478/M480V/S481M/L482A/I483M/K484R/K486H/A489L): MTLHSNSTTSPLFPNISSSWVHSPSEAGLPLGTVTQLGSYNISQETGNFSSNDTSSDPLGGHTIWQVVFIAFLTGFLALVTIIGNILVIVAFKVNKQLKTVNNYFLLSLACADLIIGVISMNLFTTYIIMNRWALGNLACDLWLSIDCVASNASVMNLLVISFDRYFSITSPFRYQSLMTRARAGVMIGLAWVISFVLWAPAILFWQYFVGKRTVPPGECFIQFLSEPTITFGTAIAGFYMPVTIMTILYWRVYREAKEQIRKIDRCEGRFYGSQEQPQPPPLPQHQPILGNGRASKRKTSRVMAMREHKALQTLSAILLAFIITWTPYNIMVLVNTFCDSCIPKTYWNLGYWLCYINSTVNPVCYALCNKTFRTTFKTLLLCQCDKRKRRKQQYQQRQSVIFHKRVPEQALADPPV


Legend:
[1] = Locomotion test in naïve macaques (no viral injection); assay type: in vivo; conditions: DCZ 0.3 mg/kg i.m.
[2] = molecular target: T1, rM3Ds
Description: Monkeys were continuously monitored by veterinarians after lesion.
Dyskinesia score criteria were: 0: Absent. 1: Mild, fleeting, present <30% of the observation period.
Each block included ten continuous trials.
Customized surface EMG electrodes were used for EMG recordings. […] The recording procedure was conducted immediately after DCZ infusions.

[3] = Blood test of liver- and kidney-related factors during DCZ treatment; assay type: in vivo, macaques; conditions: n=3 monkeys
Source text: FIG. 36A-36F depict effects of D1-MSN activation on dyskinesia-like behavior and health state-related blood factors in parkinsonian macaques. FIG. 36A illustrates quantitation of dyskinesia score at 2 months, 4 months, and 8 months after treatment with DCZ. n=3 monkeys per group.
Intriguingly, many of the symptoms were greatly reversed after systemic deschloroclozapine (DCZ) administration. DCZ is a potent brain-penetrable agonist for rM3Ds with reduced off-targeting binding compared to CNO, and was administered to activate the DREADD system in the macaque brain.

[4] = CSF concentration of DCZ by LC-MS; conditions: 24 hours after drug infusion, 0.3 mg/kg i.m.
[5] = molecular target: T1, rM3Ds; experiment: In vivo electrophysiological recording in caudate/putamen of anesthetized macaques, rM3Ds; design: 2A-EYFP (C); expressed in transfected cells; host or cells: neurons (striatal D1-MSNs) of mice or cynomolgus macaques, transduced in vivo by nigral AAV8R12-G88P7-rM3Ds-2A-EYFP; conditions: MPP+ lesioned macaques, CNO 36 cells, DCZ 31 cells
Description: • Electrophysiological recording was performed through a recording chamber while the monkey was anesthetized. Neural responses were recorded by a 16-channel linear probe (Plexon Inc, Uprobe) driven by a mechanical microdrive (Alpha Omega, FlexMT). Signals were passed through a head stage (Plexon Inc, HST/16V-G20 LN) and then split and filtered between 300 Hz and 5 kHz to identify spiking activity with an amplifier system (Plexon Inc, OmniPlex). Detected spikes were then sorted by commercially available software (Plexon Inc, Offline Sorter) for further analysis. To quantify the effect of CNO/DCZ injection, neural activity was recorded for 60 minutes following CNO/DCZ injection. The response time-course for each channel was obtained by counting the spikes within every 10-minute window and then normalizing to the maximal.
To determine the effect of CNO/DCZ injection on the direction of signal change, we performed Pearson correlation between neural responses and time using the ‘corr’ function in Matlab, which generates the correlation coefficient ‘r’ and significant level ‘p’. A neuron was considered to have “Increased” activity when r>0 and p<0.05; and considered to have “Decreased” activity when r<0 and p<0.05. Otherwise, neurons were considered to be “Unchanged” in their neural activities. The responses of all increased neurons were then averaged after being normalized by the maximal response (Crowe et al., 2014; Dai and Wang, 2018; Hirokawa et al., 2019) following CNO/DCZ injection, and then plotted as a function of time to generate the normalized population response.
To enable in-vivo verification of the strategy via an opto-tagging approach, AAV virus encoding opsin ChR2 (AAV9-EF1α-DIO-ChR2-EYFP) was injected into the striatum with simultaneous nigral infusion of a retrograde AAV encoding Cre and rM3Ds (AAV8R12-G88P7-HA-rM3Ds-2A-Cre). A total volume of 27 μl (3 μl×9 sites) and 30 μl (3 μl×10 sites) were injected in the SNr and the striatum, respectively. A recording chamber was implanted above the striatum to allow optical stimulation and electrophysiological recording.
Optogenetic verification was conducted six weeks after virus injections. A 16-channel linear probe with an embedded optic fiber (Plexon Inc., Uprobe) was used to deliver light stimulation and record neural responses. A mechanical Microdrive (FlexMT, Alpha Omega, Nazareth, Israel) was used to mount and drive the probe. A blue laser (473 nm, Changchun New Industries Tech, MBL-III-473) was used to generate light stimulation, which was controlled by a DAQ board (National Instruments, PCIe-6321) through the MonkeyLogic toolbox (NIMH version).
Light pulses of 40 Hz that last for 500 ms were used to probe neurons' responses to optical stimulation. […] Responses from these optically identified cells were grouped to generate the normalized population response as a function of time.

[6] = test system: striatonigral projection neurons (D1 MSNs); experiment: Retrograde labeling of striatal MSNs after AAV injection into the SNr, EYFP+ cell counting; assay type: in vivo, mice
Description: To improve efficiency, multiple rounds of mutations of AAV capsids were performed on a series of different serotypes. Mutations were introduced at three sites in the AAV8 capsid protein to make AAV8R, including N385D, insertion of […] (SEQ ID NO: 31) at position 588, and TS711-7121N. Two additional mutations of V183E and N41 IS were incorporated into the AAV8R12 capsid protein (FIG. 1A). The labeling pattern of the AAV8R12 capsid and G88 promoter combination was determined.
was inserted at the N587-R588 position; two other point mutations of the AAV2 Cap protein were made to develop rAAV2-retro. Similar mutations were then placed at equivalent positions for four other AAV serotypes (FIGS. 1A-1C and 25, TABLE 1), AAV1/5/6/8 (FIG. 1A). […] When administered into the SNr, 4.86±0.22 times EYFP positive MSNs in mice infected by AAV8R-hSyn-EYFP were observed as compared to those infected by rAAV2-retro-hSyn-EYFP (FIG. 2A-2C).
Baseline infectivity of rAAV2-retro was approximately 0.2±0.03×10^4 cells per striatal hemisphere (using a hSyn promoter) (TABLE 2). […] Compared to the current standard retrograde AAV, rAAV2-retro, AAV8R12 labeled 7.72±0.78-times more MSNs after nigral delivery (FIG. 2B-2C, TABLE 1). […] The AAV8R12 was generated using the AAV8R plasmid as a template.
Mice were anesthetized with sodium pentobarbital (Nembutal; 80 mg/kg, i.p.), and then placed into a stereotaxic device (KOPF). Eye cream was applied on both corneas to avoid dehydration. The skull above the targeted areas was thinned with a dental drill and carefully removed. Injections were conducted with a 10 μL syringe connected to a 33-Gauge needle (Neuros; Hamilton), using a microsyringe pump (Legato 130, KD Scientific). A total volume of 200 nL virus was injected into the SNr at a speed of 20 nL/min. The coordinates for the SNr were 3.4 mm posterior, 1.3 mm lateral, 4.8 mm ventral to the bregma.
Images were acquired using a confocal microscope (Carl Zeiss, LSM880) and an Axiolmager. Z1 microscope with apotome (Carl Zeiss). Brain structures were identified microscopically and in digital photos using a mouse brain atlas. To analyze the number of EYFP+ cells in the striatum, slices from rostral to caudal striatum were used. Every sixth section was analyzed, and numbers of EYFP+ cells were multiplied by six to acquire the approximate total number and mean number of cells per animal. Images were processed using ImageJ (NIH, USA), and final quantifications were independently performed manually by two blinded experimenters.

[7] = test system: MSNs in nucleus accumbens; experiment: Retrograde labeling of accumbal MSNs after delivery into ventral pallidum or lateral hypothalamus; assay type: in vivo, mice; conditions: stereotaxic delivery into ventral pallidum or lateral hypothalamus

Molecule	motor-related behaviors in naïve monkeys [1]	alleviation of parkinsonian symptoms during long-term treatment ([2]; DCZ 0.3 mg/kg every other day)	reversal of parkinsonian symptoms (PD score) ([2]; MPP+ macaques with AAV8R12-G88P7-rM3Ds-2A-EYFP, DCZ 0.3 mg/kg i.m., L-Dopa/benserazide 20/5 mg/kg/day oral)	motor skills (hand to mouth movement) ([2]; MPP+ macaques, DCZ treatment)	tremor (EMG) ([2]; MPP+ macaques, DCZ treatment)	dyskinesia-like behaviors (dyskinesia score) ([2]; MPP+ macaques, long-term treatment)	window of efficacy after each dose (alleviating symptoms after drug administration) ([2]; after the drug reached steady-state efficacy (FIG. 24C))	speed of reversal of symptoms, DCZ compared with levodopa ([2]; initial phase of drug administration)	duration of effect (FIG. 18C) ([2]; n=3 monkeys)	effect of an extended period (4 months) of prior L-Dopa administration on DCZ treatment ([2]; one month washout, then DCZ 2 months)	blood levels of common liver- and kidney-related factors (ALT, AST, GGT, CREA, BUN) [3]	DCZ level in cerebrospinal fluid [4]	cells in caudate/putamen activated (FIG. 15G) ([5]; saline 17.9%) [%]	cells in caudate/putamen inactivated (FIG. 15G) ([5]; saline 33.4%) [%]	cells in caudate/putamen unchanged (FIG. 15G) ([5]; saline 48.7%) [%]	Labeling Efficiency in Striatonigral Pathway ([6]; AAV8R capsid mutants, numbers of labeled neurons per animal)	EYFP positive / labeled MSNs compared to rAAV2-retro ([6]; after nigral delivery, hSyn-EYFP) [times]	labeled striatonigral projection neurons (FIG. 2C), mean±SEM ([6]; capsid comparison, injection into SNr of wild type mice, n=3 mice per group)	Mean (AAVs with capsid and promoter) ([6]; labeled cells after nigral injection in mice, b188 refers to it as cells per striatal hemisphere, SD and SEM in own columns)	labeling of MSNs in nucleus accumbens [7]
CN1CCN(C2=Nc3ccccc3Nc3ccccc32)CC1 [DCZ, Deschloroclozapine]	did not alter motor-related behaviors in naïve monkeys	consistent during an 8-month continuous treatment	reversal of canonical parkinsonian symptoms in all tested monkeys; also recorded: comparable efficiency to L-Dopa	significant recovery of motor skills; also recorded: partially restored this motor skill	great reduced or even eliminated; also recorded: removed	dyskinesia-free	at least 24 hours	faster reversal of symptoms than levodopa; also recorded: reached stable efficacy faster than L-Dopa	over 24 hr	did not affect the efficacy of DCZ treatment or the absence of dyskinesia	remained stable	no detectable levels	41.9	9.7	48.4	–	–	–	–	–
AAV8R12: AAV8R capsid mutant V183E + N411S; Cap SEQ ID NO: 59 (protein) MAADGYLPDWLEDNLSEGIREWWALKPGAPKPKANQQKQDDGRGLVLPGYKYLGPFNGLDKGEPVNAADAAALEHDKAYDQQLQAGDNPYLRYNHADAEFQERLQEDTSFGGNLGRAVFQAKKRVLEPLGLVEEGAKTAPGKKRPVEPSPQRSPDSSTGIGKKGQQPARKRLNFGQTGDSESEPDPQPLGEPPAAPSGVGPNTMAAGGGAPMADNNEGADGVGSSSGNWHCDSTWLGDRVITTSTRTWALPTYNNHLYKQISNGTSGGATNDNTYFGYSTPWGYFDFNRFHCHFSPRDWQRLINNNWGFRPKRLSFKLFNIQVKEVTQNEGTKTIANNLTSTIQVFTDSEYQLPYVLGSAHQGCLPPFPADVFMIPQYGYLTLNDGSQAVGRSSFYCLEYFPSQMLRTGNSFQFTYTFEDVPFHSSYAHSQSLDRLMNPLIDQYLYYLSRTQTTGGTANTQTLGFSQGGPNTMANQAKNWLPGPCYRQQRVSTTTGQNNNSNFAWTAGTKYHLNGRNSLANPGIAMATHKDDEERFFPSNGILIFGKQNAARDNADYSDVMLTSEEEIKTTNPVATEEYGIVADNLQRGNLADQDYTKTARQAATADVNSQGALPGMVWQNRDVYLQGPIWAKIPHTDGNFHPSPLMGGFGLKHPPPQILIKNTPVPADPPTTFNQSKLNSFITQYSTGQVSVEIEWELQKENSKRWNPEIQYTSNYYKSINVDFAVNTEGVYSEPRPIGTRYLTRNL	–	–	–	–	–	–	–	–	–	–	–	–	–	–	–	+++ (10k-25k)	7.72±0.78	16026±1654	16026	robust labeling of MSNs

Reference: patent publication US20250382346A1, “NEURONAL PROMOTERS AND USES THEREOF” (priority 2023, published 2025)
